Results on 11 compounds are retold here after patent US20220160686A1, “MACROCYCLIC AZOLOPYRIDINE DERIVATIVES AS EED AND PRC2 MODULATORS” (Fulcrum Therapeutics, Inc., priority 2019, published 2022).

Structures are written as SMILES. Read-outs that look alike come from different tables or passages of the source. Some results are limits rather than exact numbers.

As a reminder, the IC50 is the concentration that gives 50% inhibition.

This assay has as its system human P-glycoprotein HEK cells (HEK-P-gp). The experiment in a line: H3K27me3 immunocytochemistry assay in P-gp expressing HEK293T cells, with or without elacridar. The following applies: Homo sapiens, 4 days compound treatment. The class given is cell-based. The essentials:
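HEK293T stably expressing human ABCB1 (vinblastine-selected), 1000 cells/well, treated with serially diluted compound for 4 days at 37° C, with or without 250 nM elacridar. Fixed cells stained with anti-H3K27me3 plus Alexa 488 secondary and Hoechst; imaged at 10×, nuclei identified by Hoechst.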

Setting [1] is: HEK293, 96 h, without elacridar, read-out: IC50, inhibitory activity on human P-glycoprotein HEK cells (HEK-P-gp).
Setting [2] is: HEK293, with 250 nM elacridar, read-out: IC50, inhibitory activity on human P-glycoprotein HEK cells (HEK-P-gp) pretreated with elacridar.

For the compound `Cc1ncccc1-c1cc2c(n3cnnc13)NCc1cccc3c1[C@H](CO3)CO2` [Compound 1, (15R)-10-(2-methyl-3-pyridyl)-13,17-dioxa-3,5,7,8-tetrazapentacyclo[13.6.1.04,12.05,9.018,22] docosa-1(22),4(12),6,8,10,18,20-heptaene], the IC50 is, setting by setting: under setting [1], 100 to 500 nM; under setting [2], less than 25 nM.
For the compound `CC(=O)N1CCC(c2cc3c(n4cnnc24)NCc2cccc4c2[C@@H](CO4)CO3)CC1` [Compound 3, (S)-1-(4-(7a,8,13,14-tetrahydro-7H-[1,2,4]triazolo[4′,3′:1,6]pyrido[3,2-b]benzofuro[4,3-fg][1,4]oxazonin-4-yl)piperidin-1-yl)ethan-1-one], the IC50 reads like this: under setting [1], greater than 500 nM; under setting [2], 100 to 500 nM.
As to `CC(=O)N1CCC(c2cc3c(n4cnnc24)NCc2c(F)cccc2CCO3)CC1` [Compound 4, 1-(4-(12-fluoro-7,8,13,14-tetrahydro-[1,2,4]triazolo[4′,3′:1,6]pyrido[3,2-b]benzo[f][1,4]oxazonin-4-yl)piperidin-1-yl)ethan-1-one], the IC50 is, setting by setting: under setting [1], greater than 500 nM; under setting [2], greater than 500 nM.
With `Cc1ncccc1-c1cc2c(n3cnnc13)NCc1c(F)cccc1CCO2` [Compound 5, 12-fluoro-4-(2-methylpyridin-3-yl)-7,8,13,14-tetrahydro-[1,2,4]triazolo[4′,3′:1,6]pyrido[3,2-b]benzo[f][1,4]oxazonine], the IC50 by setting is: under setting [1], greater than 500 nM; under setting [2], greater than 500 nM.
Turning to `Cc1ncccc1-c1cc2c(n3cnnc13)NCc1c(F)cccc1COC2` [Compound 6, 12-fluoro-4-(2-methylpyridin-3-yl)-6,8,13,14-tetrahydro-[1,2,4]triazolo[4′,3′:1,6]pyrido[3,2-c]benzo[g][1,5]oxazonine], the IC50 under setting [1] was greater than 500 nM and the IC50 under setting [2] is greater than 500 nM.
On to `Cn1cc(Cc2cc3c(n4cnnc24)NCc2cccc4c2[C@@H](CO4)CO3)cn1` [Compound 7, (S)-4-((1-methyl-1H-pyrazol-4-yl)methyl)-7a,8,13,14-tetrahydro-7H-[1,2,4]triazolo[4′,3′:1,6]pyrido[3,2-b]benzofuro[4,3-fg][1,4]oxazonine], for which the IC50 was greater than 500 nM under setting [1] and 100 to 500 nM under setting [2].
The matching figures for `Cn1cc(Cc2cc3c(n4cnnc24)NCc2c(F)ccc4c2[C@@H](CO4)CO3)cn1` [Compound 10, (S)-12-fluoro-4-((1-methyl-1H-pyrazol-4-yl)methyl)-7a,8,13,14-tetrahydro-7H-[1,2,4]triazolo[4′,3′:1,6]pyrido[3,2-b]benzofuro[4,3-fg][1,4]oxazonine]: greater than 500 nM and 100 to 500 nM.
On the same counts, the results for `c1cc2c3c(c1)OC[C@H]3COc1ccc3nncn3c1NC2` [Compound 11, (S)-7a,8,13,14-tetrahydro-7H-[1,2,4]triazolo[4′,3′:1,6]pyrido[3,2-b]benzofuro[4,3-fg][1,4]oxazonine] are greater than 500 nM and greater than 500 nM.
The matching figures for `Fc1ccc2c3c1CNc1c(cc(C4COC4)c4nncn14)OC[C@@H]3CO2` [Compound 12, (S)-12-fluoro-4-(oxetan-3-yl)-7a,8,13,14-tetrahydro-7H-[1,2,4]triazolo[4′,3′:1,6]pyrido[3,2-b]benzofuro[4,3-fg][1,4]oxazonine]: 50 to 100 nM and 25 to 50 nM.
`Cc1ncc(-c2cc3c(n4cnnc24)NCc2c(F)ccc4c2[C@@H](CO4)CO3)c(C)n1` [Compound 13, (S)-4-(2,4-dimethylpyrimidin-5-yl)-12-fluoro-7a,8,13,14-tetrahydro-7H-[1,2,4]triazolo[4′,3′:1,6]pyrido[3,2-b]benzofuro[4,3-fg][1,4]oxazonine]: the IC50 was 25 to 50 nM under setting [1] and less than 25 nM under setting [2].
`Cc1ncc(-c2cc3c(n4cnnc24)NCc2c(F)cccc2CCO3)c(C)n1` [Compound 14, 4-(2,4-dimethylpyrimidin-5-yl)-12-fluoro-7,8,13,14-tetrahydro-[1,2,4]triazolo[4′,3′:1,6]pyrido[3,2-b]benzo[f][1,4]oxazonine]: the IC50 under setting [1] was greater than 500 nM and the half-maximal inhibitory concentration (IC50) under setting [2] is greater than 500 nM.
